What was measured:
sugar beet = assay: Test B pre/postemergence sugar beet; format: in vivo, Beta vulgaris
Method in brief: (§1)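 Response is a visual 0-to-10 score relative to untreated plants, where 0 means no effect and 10 means complete control, taken twelve to sixteen days after application. Treatments went onto soil at planting and onto foliage of 1- to 4-leaf plants, using a surfactant-containing non-phytotoxic solvent.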

rape = assay: Test B pre/postemergence rape; format: in vivo, Brassica napus
Method in brief: as §1

blackgrass = assay: Test B pre/postemergence blackgrass; format: in vivo, Alopecurus myosuroides
Method in brief: as §1

giant foxtail = assay: Test B pre/postemergence giant foxtail; format: in vivo, Setaria faberii
Method in brief: as §1

soybean = assay: Test B pre/postemergence soybean; format: in vivo, Glycine max
Method in brief: as §1

surinam grass = assay: Test B pre/postemergence surinam grass; format: in vivo, Brachiaria decumbens; conditions: Postemergence
Method in brief: as §1

pigweed = assay: Test B pre/postemergence pigweed; format: in vivo, Amaranthus retroflexus
Method in brief: as §1

crabgrass = assay: Test B pre/postemergence crabgrass; format: in vivo, Digitaria sanguinalis
Method in brief: as §1

wild oat = assay: Test B pre/postemergence wild oat; format: in vivo, Avena fatua
Method in brief: as §1

morningglory = assay: Test B pre/postemergence morningglory; format: in vivo, Ipomoea hederacea
Method in brief: as §1

cocklebur = assay: Test B pre/postemergence cocklebur; format: in vivo, Xanthium strumarium
Method in brief: as §1

bedstraw = assay: Test B pre/postemergence bedstraw; format: in vivo, Galium aparine
Method in brief: as §1

corn = assay: Test B pre/postemergence corn; format: in vivo, Zea mays
Method in brief: as §1

velvetleaf = assay: Test B pre/postemergence velvetleaf; format: in vivo, Abutilon theophrasti
Method in brief: as §1

purple nutsedge = assay: Test B pre/postemergence purple nutsedge; format: in vivo, Cyperus rotundus
Method in brief: as §1

wheat = assay: Test B pre/postemergence wheat; format: in vivo, Triticum aestivum
Method in brief: as §1

[1] = Postemergence, Rate 62 g/ha, scale 0 to 10, 0 is no effect, 10 is complete control
[2] = Postemergence, Rate 125 g/ha, scale of 0 to 10 where 0 is no effect and 10 is complete control
[3] = Preemergence, Rate 125 g/ha, scale of 0 to 10 where 0 is no effect and 10 is complete control
[4] = Preemergence, Rate 250 g/ha, scale 0 (no effect) to 10 (complete control)
[5] = Rate 62 g/ha, Preemergence, scale 0 to 10
[6] = Rate 250 g/ha, Postemergence, scale 0 to 10, 0 is no effect, 10 is complete control
[7] = Rate 500 g/ha, Postemergence, scale 0 to 10, 0 is no effect, 10 is complete control
[8] = Rate 500 g/ha, Preemergence, scale 0 to 10 (0 no effect, 10 complete control)

CCC(C)n1c(=O)on(C(=O)N(c2ccc(F)cc2)C(C)C)c1=O (stereo not shown) [Compound 751]
Plant response rating, Sugarbeets (sugar beet; [1]): 3 | Sugarbeets plant response rating (sugar beet; [2]): 3 | Plant response rating, Sugarbeets (sugar beet; [3]): 2 | Sugarbeets plant response rating (sugar beet; [4]): 5 | Sugarbeets plant response rating (sugar beet; [5]): 2 | Sugarbeets plant response rating (sugar beet; [6]): 3 | Sugarbeets plant response rating (sugar beet; [7]): 3 | Sugarbeets plant response rating (sugar beet; [8]): 7 | Plant response rating, Rape (rape; [1]): 2 | Rape plant response rating (rape; [2]): 3 | Plant response rating, Rape (rape; [3]): 6 | Rape plant response rating (rape; [4]): 7 | Rape plant response rating (rape; [5]): 4 | Rape plant response rating (rape; [6]): 5 | Rape plant response rating (rape; [7]): 5 | Rape plant response rating (rape; [8]): 9 | Plant response rating, Blackgrass (blackgrass; [1]): 6 | Blackgrass plant response rating (blackgrass; [2]): 6 | Plant response rating, Blackgrass (blackgrass; [3]): 10 | Blackgrass plant response rating (blackgrass; [4]): 10 | Blackgrass plant response rating (blackgrass; [5]): 9 | Blackgrass plant response rating (blackgrass; [6]): 6 | Blackgrass plant response rating (blackgrass; [7]): 7 | Blackgrass plant response rating (blackgrass; [8]): 10 | Plant response rating, Giant foxtail (giant foxtail; [1]): 8 | Giant foxtail plant response rating (giant foxtail; [2]): 9 | Plant response rating, Giant foxtail (giant foxtail; [3]): 10 | Giant foxtail plant response rating (giant foxtail; [4]): 10 | Giant foxtail plant response rating (giant foxtail; [5]): 10 | Giant foxtail plant response rating (giant foxtail; [6]): 9 | Giant foxtail plant response rating (giant foxtail; [7]): 9 | Giant foxtail plant response rating (giant foxtail; [8]): 10 | Plant response rating, Soybean (soybean; [1]): 2 | Soybean plant response rating (soybean; [2]): 3 | Plant response rating, Soybean (soybean; [3]): 0 | Soybean plant response rating (soybean; [4]): 7 | Soybean plant response rating (soybean; [5]): 0 | Soybean plant response rating (soybean; [6]): 7 | Soybean plant response rating (soybean; [7]): 7 | Soybean plant response rating (soybean; [8]): 9 | Plant response rating, B. signalgrass (surinam grass; Rate 62 g/ha, scale 0 to 10, 0 is no effect, 10 is complete control): 3 | B. signalgrass plant response rating (surinam grass; Rate 125 g/ha, scale of 0 to 10 where 0 is no effect and 10 is complete control): 3 | B. signalgrass plant response rating (surinam grass; Rate 250 g/ha, scale 0 to 10, 0 is no effect, 10 is complete control): 6 | B. signalgrass plant response rating (surinam grass; Rate 500 g/ha, scale 0 to 10, 0 is no effect, 10 is complete control): 7 | Redroot pigweed plant response rating (pigweed; [2]): 6 | Plant response rating, Redroot pigweed (pigweed; [3]): 10 | Redroot pigweed plant response rating (pigweed; [4]): 10 | Redroot pigweed plant response rating (pigweed; [5]): 10 | Redroot pigweed plant response rating (pigweed; [6]): 9 | Redroot pigweed plant response rating (pigweed; [7]): 9 | Redroot pigweed plant response rating (pigweed; [8]): 10 | Plant response rating, Crabgrass (crabgrass; [1]): 7 | Crabgrass plant response rating (crabgrass; [2]): 8 | Plant response rating, Crabgrass (crabgrass; [3]): 10 | Crabgrass plant response rating (crabgrass; [4]): 10 | Crabgrass plant response rating (crabgrass; [5]): 10 | Crabgrass plant response rating (crabgrass; [6]): 9 | Crabgrass plant response rating (crabgrass; [7]): 9 | Crabgrass plant response rating (crabgrass; [8]): 10 | Plant response rating, Wild oats (wild oat; [1]): 0 | Wild oats plant response rating (wild oat; [2]): 0 | Plant response rating, Wild oats (wild oat; [3]): 8 | Wild oats plant response rating (wild oat; [4]): 10 | Wild oats plant response rating (wild oat; [5]): 3 | Wild oats plant response rating (wild oat; [6]): 3 | Wild oats plant response rating (wild oat; [7]): 5 | Wild oats plant response rating (wild oat; [8]): 10 | Plant response rating, Morningglory (morningglory; [1]): 8 | Morningglory plant response rating (morningglory; [2]): 8 | Plant response rating, Morningglory (morningglory; [3]): 5 | Morningglory plant response rating (morningglory; [4]): 5 | Morningglory plant response rating (morningglory; [5]): 0 | Morningglory plant response rating (morningglory; [6]): 8 | Morningglory plant response rating (morningglory; [7]): 9 | Morningglory plant response rating (morningglory; [8]): 5 | Plant response rating, Cocklebur (cocklebur; [1]): 0 | Cocklebur plant response rating (cocklebur; [2]): 2 | Plant response rating, Cocklebur (cocklebur; [3]): 0 | Cocklebur plant response rating (cocklebur; [4]): 0 | Cocklebur plant response rating (cocklebur; [5]): 0 | Cocklebur plant response rating (cocklebur; [6]): 2 | Cocklebur plant response rating (cocklebur; [7]): 2 | Cocklebur plant response rating (cocklebur; [8]): 0 | Plant response rating, Bedstraw (bedstraw; [1]): 0 | Bedstraw plant response rating (bedstraw; [2]): 5 | Plant response rating, Bedstraw (bedstraw; [3]): 2 | Bedstraw plant response rating (bedstraw; [4]): 9 | Bedstraw plant response rating (bedstraw; [7]): 7 | Bedstraw plant response rating (bedstraw; [8]): 10 | Plant response rating, Corn (corn; [1]): 0 | Corn plant response rating (corn; [2]): 0 | Plant response rating, Corn (corn; [3]): 4 | Corn plant response rating (corn; [4]): 8 | Corn plant response rating (corn; [5]): 0 | Corn plant response rating (corn; [6]): 0 | Corn plant response rating (corn; [7]): 2 | Corn plant response rating (corn; [8]): 9 | Plant response rating, Velvetleaf (velvetleaf; [1]): 0 | Velvetleaf plant response rating (velvetleaf; [2]): 2 | Plant response rating, Velvetleaf (velvetleaf; [3]): 8 | Velvetleaf plant response rating (velvetleaf; [4]): 8 | Velvetleaf plant response rating (velvetleaf; [5]): 7 | Velvetleaf plant response rating (velvetleaf; [6]): 2 | Velvetleaf plant response rating (velvetleaf; [7]): 3 | Velvetleaf plant response rating (velvetleaf; [8]): 8 | Plant response rating, Nutsedge (purple nutsedge; [1]): 0 | Nutsedge plant response rating (purple nutsedge; [2]): 0 | Plant response rating, Nutsedge (purple nutsedge; [3]): 0 | Nutsedge plant response rating (purple nutsedge; [4]): 0 | Nutsedge plant response rating (purple nutsedge; [5]): 0 | Nutsedge plant response rating (purple nutsedge; [6]): 0 | Nutsedge plant response rating (purple nutsedge; [7]): 10 | Nutsedge plant response rating (purple nutsedge; [8]): 0 | Plant response rating, Wheat (wheat; [1]): 0 | Wheat plant response rating (wheat; [2]): 0 | Plant response rating, Wheat (wheat; [3]): 4 | Wheat plant response rating (wheat; [4]): 5 | Wheat plant response rating (wheat; [5]): 0 | Wheat plant response rating (wheat; [6]): 5 | Wheat plant response rating (wheat; [7]): 3 | Wheat plant response rating (wheat; [8]): 10
